Converted amounts (≈) assume the structure as drawn. Where two headings read alike, the source gives them in different places.
How the values were obtained:
Aspergillus niger = test: Peanut field trial, seed treatment, pest incidence 42 days after planting; assay type: in vivo, Aspergillus niger on Arachis hypogaea (peanut)
Protocol: A peanut field trial was carried out on May 11, 2020 in Malpur, Gujarat, India, to evaluate the efficacy of different compounds against Aspergillus sp. fungi. The disease symptoms started to occur 4 weeks after planting and an assessment on disease incidence (% infected plants) was done 42 days after planting.
Pest Incidence, 42 Days after Planting

[1] = system: Aspergillus flavus isolates; test: In vitro mycelial growth inhibition assay on amended agar; assay type: cell-based; conditions: 120 h, 5 days incubation, 22 C
Protocol: (§1) The sensitivity to cyclobutrifluram of 104 isolates of Aspergillus niger and 31 isolates of Aspergillus flavus was determined under in vitro lab conditions using a mycelial growth inhibition assay. Isolates of Aspergillus niger were retrieved from infected seeds or infected plants with clear symptoms of crown rot disease. Isolates of Aspergillus flavus were collected from infected seeds. The sensitivity to azoxystrobin of the isolates was determined under in vitro conditions using a conidial germination inhibition assay. Sensitivity tests were conducted in vitro using agar medium amended with cyclobutrifluram or azoxystrobin at the following concentrations: 0, 0.001, 0.01, 0.1, 1, and 10 mg a.i./L. The plates were incubated at room temperature (22 C). The mycelial growth of the colonies growing on plates amended or not with cyclobutrifluram was determined after 5 days of incubation. The conidial germination on agar plates amended or not with azoxystrobin was determined after 18 hours of incubation. A conidium was rated as germinated, if a normally developing germ tube had at least the length of a conidium. […] Effective dose values (EC50) are expressed in mg of cyclobutrifluram or azoxystrobin active ingredient/L. [table] [table]

[2] = system: Aspergillus niger isolates; test: as above; assay type: cell-based; conditions: 120 h, 5 days incubation, 22 C
Protocol: as §1

[3] = system: Aspergillus flavus isolates; test: In vitro conidial germination inhibition assay on amended agar; assay type: cell-based; conditions: 31 A. flavus isolates, 18 hours incubation; for EC50 values, maximum: highest concentration used 10 mg a.i./L
Protocol: as §1

[4] = system: Aspergillus niger isolates; test: as above; assay type: cell-based; conditions: 104 A. niger isolates, 18 hours incubation; for EC50 values, minimum: 22 C; for EC50 values, maximum: highest concentration used 10 mg a.i./L
Protocol: as §1

EC50 ([1]; 31 A. flavus isolates, read-out: EC50 values, maximum) [µg/mL] | EC50 ([1]; 31 A. flavus isolates, read-out: EC50 values, minimum) [µg/mL] | EC50 ([2]; 104 A. niger isolates, read-out: EC50 values, maximum) [µg/mL] | EC50 ([2]; 104 A. niger isolates, read-out: EC50 values, minimum) [µg/mL] | SMILES | Pest incidence (LS Means) (Aspergillus niger; peanut GG 20, field trial Malpur, Gujarat, India, seed treatment, 42 days after planting, rates g AI/100 kg: VITAVAX 225, cyclobutrifluram 60, VIBRANCE MAXX 150, EVERGOL XTEND 30.8) | % efficacy based on disease incidence (Aspergillus niger; peanut GG 20, field trial, seed treatment, 42 days after planting, rates g AI/100 kg: VITAVAX 225, cyclobutrifluram 60, VIBRANCE MAXX 150, EVERGOL XTEND 30.8) [%] | Aspergillus niger pest incidence compared to the untreated and standard treatments (Aspergillus niger; treatment 3, 60 g AI/100 kg seed treatment, 42 days after application) | EC50 ([1]; 31 A. flavus isolates from infected peanut seeds, read-out: EC50 values, mean (geometric mean)) [µg/mL] | EC50 ([2]; 104 A. niger isolates from infected peanut seeds or plants, read-out: EC50 values, mean (geometric mean)) [µg/mL] | EC50 values, minimum ([3]; 22 C) [mg · ai/L] | EC50 values, maximum [3] [mg · ai/L] | EC50 values, maximum ([3]; listed as azoxystrobin) | EC50 values, minimum [4] [mg · ai/L] | EC50 values, minimum ([4]; listed as azoxystrobin) [mg · ai/L] | EC50 values, maximum [4] [mg · ai/L] | EC50 values, maximum ([4]; listed as azoxystrobin)
0.7 (≈ 1.8 µM) | 0.0262 (≈ 0.0673 µM) | 0.703 (≈ 1.81 µM) | 0.00924 (≈ 0.0238 µM) | O=C(N[C@@H]1CC[C@@H]1c1ccc(Cl)cc1Cl)c1cccnc1C(F)(F)F (racemic) [Cyclobutrifluram, cyclobutrifluram] | 0.42, % infected plants | 97.03 | significantly lower | 0.108 (≈ 0.277 µM) | 0.082 (≈ 0.211 µM) |  |  |  |  |  |  | 
 |  |  |  | CO/C=C(/C(=O)OC)c1ccccc1Oc1cc(Oc2ccccc2C#N)ncn1 [Azoxystrobin, azoxystrobin] |  |  |  |  |  | 0.003457 | >10 | more than 10 mg · ai/L | <0.001 | 0.000793 | >10 | more than 10 mg · ai/L
